In ChEMBL document CHEMBL1201862, “PubChem BioAssay data set” (2004):
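Exposure lasted 48 hours, with cells grown in 96-well plates and compounds tested at five concentrations. At the GI50, growth is halved.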 Activity calls are given as the source filed them. Cut-off read from the data, not from the text of the source: active = GI50 up to about 1.1 µM and inactive = higher.

Legend:
Assay in all cases: DTP human tumour cell line panel, 48 h
[1] = tested on: NCI-H23
[2] = tested on: HCT-116
[3] = tested on: DU-145
[4] = tested on: SK-OV-3
[5] = tested on: A549
[6] = tested on: SF-295
[7] = tested on: PC-3
[8] = tested on: OVCAR-3
[9] = tested on: RPMI-8226
[10] = tested on: OVCAR-4
[11] = tested on: HOP-62
[12] = tested on: NCI-H522
[13] = tested on: LOX IMVI
[14] = tested on: HCC 2998
[15] = tested on: KM12
[16] = tested on: SF-539
[17] = tested on: SNB-19
[18] = tested on: NCI-H460
[19] = tested on: SR
[20] = tested on: SK-MEL-2

Structure (SMILES)	GI50 [1]	GI50 [2]	GI50 [3]	GI50 [4]	GI50 [5]	GI50 [6]	GI50 [7]	GI50 [8]	GI50 [9]	GI50 [10]	GI50 [11]	GI50 [12]	GI50 [13]	GI50 [14]	GI50 [15]	GI50 [16]	GI50 [17]	GI50 [18]	GI50 [19]	GI50 [20]
COc1ccc(-c2nnc(CCCCCCCCc3nnc(-c4ccc(OC)cc4)n3N)n2N)cc1	> 100 µM (inactive)	> 66.1 µM (inactive)	> 100 µM (inactive)	> 56.2 µM (inactive)	> 100 µM (inactive)	> 59.4 µM (inactive)	> 100 µM (inactive)	> 100 µM (inactive)	> 100 µM (inactive)	> 100 µM (inactive)	28.2 µM (inactive)	> 56.5 µM (inactive)	> 100 µM (inactive)	> 100 µM (inactive)	> 100 µM (inactive)	> 76.2 µM (inactive)	> 60.3 µM (inactive)	> 100 µM (inactive)	> 100 µM (inactive)	> 81.5 µM (inactive)
Cc1cc2c3ccccc3n(C)c2c2c1C(=O)C=CC2=O	12.4 µM (inactive)	20 µM (inactive)	21.7 µM (inactive)	21.1 µM (inactive)	40.4 µM (inactive)	27.7 µM (inactive)	9.91 µM (inactive)	15 µM (inactive)	1.58 µM (inactive)	7.29 µM (inactive)	22.4 µM (inactive)	16.1 µM (inactive)	17.5 µM (inactive)	20.2 µM (inactive)	17 µM (inactive)	21.6 µM (inactive)	28.5 µM (inactive)	17.1 µM (inactive)	4.68 µM (inactive)	18.1 µM (inactive)
CCOC(=O)[C@@H]1CCN2CN(c3ccc(OC)cc3)N=C(c3ccccc3)[C@@]12c1ccccc1	24.1 µM (inactive)	16.7 µM (inactive)	22.6 µM (inactive)	44 µM (inactive)	29.9 µM (inactive)	25.8 µM (inactive)	25.5 µM (inactive)	–	14.1 µM (inactive)	44 µM (inactive)	27.7 µM (inactive)	17.5 µM (inactive)	14.1 µM (inactive)	26.2 µM (inactive)	28.3 µM (inactive)	–	37 µM (inactive)	27.8 µM (inactive)	23.7 µM (inactive)	18.1 µM (inactive)
OC(COc1ccc(Cl)cc1Cl)CN1CCCC1 (stereo not given)	> 100 µM (inactive)	87.3 µM (inactive)	> 100 µM (inactive)	> 100 µM (inactive)	> 100 µM (inactive)	89.7 µM (inactive)	> 100 µM (inactive)	58.9 µM (inactive)	57 µM (inactive)	> 100 µM (inactive)	> 100 µM (inactive)	52.8 µM (inactive)	> 100 µM (inactive)	32.9 µM (inactive)	> 100 µM (inactive)	> 100 µM (inactive)	> 100 µM (inactive)	91.6 µM (inactive)	64.6 µM (inactive)	> 100 µM (inactive)
COc1ccc2[nH]c3cc4c(=O)c5cc(OC)ccc5[nH]c4cc3c(=O)c2c1	> 100 µM (inactive)	> 100 µM (inactive)	> 100 µM (inactive)	> 100 µM (inactive)	> 100 µM (inactive)	> 100 µM (inactive)	> 100 µM (inactive)	> 100 µM (inactive)	> 100 µM (inactive)	> 100 µM (inactive)	69.5 µM (inactive)	> 100 µM (inactive)	–	> 100 µM (inactive)	> 100 µM (inactive)	–	> 100 µM (inactive)	> 100 µM (inactive)	> 100 µM (inactive)	> 100 µM (inactive)
CN(C)CCNC(=O)c1cccc2c1Oc1c(cccc1[N+](=O)[O-])O2	1.44 µM (inactive)	0.817 µM (active)	0.57 µM (active)	–	0.458 µM (active)	0.548 µM (active)	1.95 µM (inactive)	2.69 µM (inactive)	0.583 µM (active)	5.04 µM (inactive)	0.472 µM (active)	0.975 µM (active)	0.908 µM (active)	1.04 µM (active)	1.26 µM (inactive)	1.39 µM (inactive)	–	0.413 µM (active)	0.462 µM (active)	0.29 µM (active)
COc1ccc(C[C@@H](C(=O)O[C@H](C)[C@H](NC(=O)[C@@H](CC(C)C)N(C)C(=O)C2CCCN2C(=O)[C@H](C)O)C(=O)N2CCCCNC(=O)[C@@H](C)C(=O)[C@H](C(C)C)OC(=O)C[C@H](O)[C@H]2CC(C)C)N(C)C(C)=O)cc1 (stereo not given in full)	10.3 µM (inactive)	4.76 µM (inactive)	11.4 µM (inactive)	16.1 µM (inactive)	13.2 µM (inactive)	10.1 µM (inactive)	15.8 µM (inactive)	14 µM (inactive)	9.08 µM (inactive)	7.83 µM (inactive)	13.4 µM (inactive)	9.25 µM (inactive)	–	9.33 µM (inactive)	4.89 µM (inactive)	5.18 µM (inactive)	10.6 µM (inactive)	9.82 µM (inactive)	9.95 µM (inactive)	17.7 µM (inactive)
COc1cccc(-c2cc(O)c3cc(OC)ccc3n2)c1	0.32 µM (active)	0.239 µM (active)	0.429 µM (active)	0.208 µM (active)	0.367 µM (active)	0.18 µM (active)	0.338 µM (active)	0.188 µM (active)	0.34 µM (active)	1.71 µM (inactive)	0.446 µM (active)	–	0.439 µM (active)	0.291 µM (active)	0.396 µM (active)	0.188 µM (active)	0.39 µM (active)	0.365 µM (active)	0.0815 µM (active)	0.321 µM (active)
Nc1ccc(Oc2ccc(C34CC5CC6C3CC3CC4C(C5)C6(c4ccc(Oc5ccc(N)cc5)cc4)C3)cc2)cc1	26.4 µM (inactive)	8.41 µM (inactive)	8.93 µM (inactive)	22.8 µM (inactive)	12.6 µM (inactive)	23.8 µM (inactive)	8.26 µM (inactive)	6.5 µM (inactive)	13 µM (inactive)	11.1 µM (inactive)	18.3 µM (inactive)	12.8 µM (inactive)	20 µM (inactive)	18 µM (inactive)	19.5 µM (inactive)	–	9.53 µM (inactive)	21.4 µM (inactive)	21.9 µM (inactive)	4.37 µM (inactive)
CCCCCCCCCCC(O)C1CCC(C2CCC(C(O)CCCCC(O)CCCCCC(O)CC3=CC(C)OC3=O)O2)O1 (stereo not given)	–	0.748 µM (active)	9.91 µM (inactive)	> 25 µM (inactive)	> 20.9 µM (inactive)	19.9 µM (inactive)	> 25 µM (inactive)	> 25 µM (inactive)	> 16.4 µM (inactive)	> 25 µM (inactive)	> 25 µM (inactive)	19.1 µM (inactive)	2.69 µM (inactive)	> 25 µM (inactive)	3.78 µM (inactive)	> 25 µM (inactive)	> 25 µM (inactive)	6.93 µM (inactive)	0.0218 µM (active)	> 25 µM (inactive)
OC(Cc1cccc2ccccc12)CN1CCC(c2ccccc2)CC1 (stereo not given)	15.3 µM (inactive)	13.2 µM (inactive)	14.9 µM (inactive)	17.5 µM (inactive)	15.9 µM (inactive)	13.2 µM (inactive)	14.5 µM (inactive)	15.1 µM (inactive)	8.13 µM (inactive)	–	15.8 µM (inactive)	9.48 µM (inactive)	15.5 µM (inactive)	2.56 µM (inactive)	14.8 µM (inactive)	17.3 µM (inactive)	13 µM (inactive)	13.9 µM (inactive)	10.8 µM (inactive)	–
CSc1ccn(C2CC(F)C(CO)O2)c(=O)n1 (stereo not given)	> 100 µM (inactive)	> 100 µM (inactive)	> 100 µM (inactive)	> 100 µM (inactive)	> 100 µM (inactive)	> 100 µM (inactive)	> 100 µM (inactive)	> 100 µM (inactive)	–	> 100 µM (inactive)	> 100 µM (inactive)	> 100 µM (inactive)	> 100 µM (inactive)	> 100 µM (inactive)	> 100 µM (inactive)	> 100 µM (inactive)	> 100 µM (inactive)	> 100 µM (inactive)	> 100 µM (inactive)	> 100 µM (inactive)
N#Cc1c(N)c2c(c(-c3ccccc3)c1-c1ccccc1)C(=O)N(Nc1ccccc1)C2=O	–	12.9 µM (inactive)	31.3 µM (inactive)	–	26.9 µM (inactive)	41.5 µM (inactive)	28.3 µM (inactive)	21.7 µM (inactive)	29.5 µM (inactive)	35.1 µM (inactive)	–	58.6 µM (inactive)	16.9 µM (inactive)	35.8 µM (inactive)	24.2 µM (inactive)	35.8 µM (inactive)	45.8 µM (inactive)	34 µM (inactive)	36.2 µM (inactive)	30.1 µM (inactive)
COCc1cc2c(cc1/C=C/[N+](=O)[O-])OCO2	27.4 µM (inactive)	17.9 µM (inactive)	19.4 µM (inactive)	17.9 µM (inactive)	17.1 µM (inactive)	21.6 µM (inactive)	12.1 µM (inactive)	19.4 µM (inactive)	76 µM (inactive)	–	20.7 µM (inactive)	19.2 µM (inactive)	27.5 µM (inactive)	17.5 µM (inactive)	20.8 µM (inactive)	20.7 µM (inactive)	–	17.7 µM (inactive)	53.3 µM (inactive)	–
CCOC(=O)C1=C(C)N(Cc2ccccc2)C2(O)C(OC)CC(=O)C3C(=O)N(c4ccccc4)C(=O)C132 (stereo not given)	15.8 µM (inactive)	6.3 µM (inactive)	3.9 µM (inactive)	–	7.74 µM (inactive)	15.2 µM (inactive)	7.73 µM (inactive)	7.41 µM (inactive)	2.69 µM (inactive)	4.84 µM (inactive)	6.81 µM (inactive)	5.98 µM (inactive)	3.39 µM (inactive)	12.4 µM (inactive)	8.75 µM (inactive)	15 µM (inactive)	16.3 µM (inactive)	6.98 µM (inactive)	3.55 µM (inactive)	7.57 µM (inactive)
